Assay results taken from patent publication US8211445B2, “PSM peptides as vaccine targets against methicillin-resistant Staphylococcus” (The United States of America, as represented by the …, priority 2007, dated 2012).

Key:
Type in all cases: cell-based
human neutrophils [1] = assay: Priming of human neutrophils (surface expression of CD11b and gp91phox); conditions: PSM-mec vs PSMα3; in the range of other α-type PSMs and δ-toxin, higher than β-type PSMs
Procedure: (§1) Priming of PMNs by synthetic PSMs was determined by increased surface expression of CD11b and gp91phox (granule exocytosis). PMNs were incubated with 10-10,000 ng/ml PSM, 10 μM fMLP, 10 ng/ml lipopolysaccharide, or 10 μg/ml lipoteichoic acid in 96-well tissue culture plates at 37° C. with rotation for 60 minutes. The assay was terminated by centrifuging cells at 4° C. for 8 minutes at 350×g. Cells were washed twice in cold Dulbecco's phosphate-buffered saline and stained with and isotype control antibody (BD Biosciences) or those specific for CD11b (mAb 44, BD Biosciences) or gp91phox (mAb 7D533). Propidium iodide (0.5 μg/ml) was used to identify dead cells. PMNs were analyzed on a FACSCalibur flow cytometer (Becton Dickinson) and dead cells were excluded with a single gate. Percent positive neutrophils were determined with a marker defined by the boundary of the isotype-matched control antibody.
as §1, with “10-10000” for “10-10,000”, “7D5).” for “7D533).”
Human neutrophil assays: Human neutrophil isolation, chemotaxis, calcium ion flux, priming, lysis assays, and measurement of IL-8 production were performed as described in Example 2.

human neutrophils [2] = assay: Scanning electron microscopy of neutrophils exposed to PSMα3; conditions: PSMα3 10 μg/ml
Procedure: FIG. 4 includes several panels showing PSM-induced lysis of human neutrophils. FIG. 4A is a graph showing human neutrophil lysis, measured by release of lactate dehydrogenase (LDH) activity, with synthetic PSM peptides at 10 μg/ml. FIG. 4B is a graph showing human neutrophil lysis, measured by release of LDH activity, with culture filtrates of wild-type, PSM gene deletion and complemented CA- and HA-MRSA strains. Data represent means±SEM of at least three independent measurements. FIG. 4C is a series of digital images showing in vitro lysis of human neutrophils with synthetic PSMα3. Neutrophils were incubated with PSMα3 (10 μg/ml) and observed by scanning electron microscopy at the time intervals indicated, in comparison to untreated controls. […] The peak at ˜190 nm is indicative of α-helicity. […] FIG. 4F is a pair of graphs showing the infiltration and killing of […] leukocytes in a murine peritonitis model. Two hours after infection with the bacteria, neutrophils and monocytes were counted in peritoneal exudates, and dead and live cells were distinguished, using flow cytometry. The number of mice was n=5 for all samples except n=4 for MW2 samples (the results from one mouse in the MW2 wild-type and PSMα deletion strain samples were not included because of extensive bleeding). […]

human neutrophils [3] = assay: Calcium ion flux in neutrophils (Fluo-3-AM); conditions: PSM-mec vs PSMα3; range similar to other α-type PSMs, in general higher than β-type PSMs (FIG. 21B)
Procedure: Neutrophils were subjected to a brief hypotonic shock with pyrogen-free water (Sigma), washed, and suspended at 5×10^6 cells/ml in HBSS containing 0.05% human serum albumin (HSA; CLB). Chemotaxis of neutrophils was determined by using fluorescently-labeled neutrophils that migrated through a membrane fitted into an insert of a 24-well microtiter plate transwell system (Costar) containing a prewetted 3-μm-pore-size polycarbonate filter as described (de Haas et al., J Exp Med 199, 687-95, 2004). For measurement of calcium ion fluxes, 5×10^6 neutrophils/ml were loaded with 2 μM Fluo-3-AM (Molecular Probes) in RPMI containing 0.05% HSA (RPMI-HSA) for 20 minutes at room temperature under agitation, washed twice with buffer, and resuspended in RPMI-HSA at 10^6 cells/ml. Calcium fluxes were analyzed with a FACScalibur (Becton Dickinson).
Neutrophils were subjected to a brief hypotonic shock with pyrogen-free water (Sigma), washed, and suspended at 5×10^6 cells/ml in HBSS containing 0.05% human serum albumin (HAS; CLB). Chemotaxis of neutrophils was determined by using fluorescently-labeled neutrophils that migrated through a membrane fitted into an insert of a 24-well microtiter plate transwell system (Costar) containing a prewetted 3-μm-pore-size polycarbonate filter. […] Calcium fluxes were analyzed with a FACScalibur (Becton Dickinson). […]

Substance: fMEFVAKLFKFFKDLLGKFLGNN [PSMα3]
- capacity to activate human neutrophils (surface exposure of gp91phox and CD11b) (human neutrophils [1]): most potent
- state of neutrophils after 60 minutes (human neutrophils [2]): many neutrophils were completely destroyed
- time of exposure until signs of priming and compromised integrity of the plasma membrane (human neutrophils [2]): ≤ 5 min
- calcium flux (human neutrophils [3]): most potent
